Earlier results on 1 molecule are cited in patent US10357529B2, “Natural formulation for treating hangover” (RVRS, LLC, priority 2016, dated 2019).

Data set [1] relates to GABAAR. Conditions: 1 μM; hippocampus and cultured neurons.
For data set [2], the system named is BZ-sites on GABAAR. To be noted: competitive; read-out: IC50, inhibition of BZ-site [3H]flunitrazepam binding.
Data set [3] deals with rats.

As to `O=C1c2c(O)cc(O)cc2O[C@H](c2cc(O)c(O)c(O)c2)[C@H]1O` [DHM, Dihydromyricetin], in data set [1], the “effect on EtOH-induced potentiation of GABAAR's and GABAAR plasticity” value is “antagonized both acute EtOH-induced potentiation of GABAAR's and EtOH exposure/withdrawal-induced GABAAR plasticity”. Further, in data set [2], the 50% inhibitory concentration (IC50) was 4.36 µM. The “EtOH consumption in an intermittent voluntary EtOH intake paradigm” value in data set [3] is on record as “greatly reduced EtOH consumption”. Moreover, in data set [3] (1 mg/kg, i.p. injection), the “effect on acute alcohol (EtOH) intoxication and withdrawal signs” value was “counteracted acute alcohol (EtOH) intoxication”.
